Assays:
monocytes = conditions: cited from earlier work
CD3+ T cells = conditions: cited from earlier work
[1] = test system: monocyte-derived DCs (moDCs); format: cell-based, human; conditions: rCD40L 5 µg/mL, 72 h

Row | Substance | Differentiation of monocytes to CD14neg cells (monocytes) | Induction of IL-12p70 in isolated CD3+ T cells in absence of DC engagement (CD3+ T cells) | Differentiation of cells within moDC cultures to CD14neg DC phenotype ([1]; after 7 days GM-CSF/IL-4, Fig. 1a) | Proliferative capacity of moDCs (Ki67 expression) ([1]; Fig. 1b)
1 | RSKAKNPLYR linked to R8 [IK14800] | does not promote differentiation of monocytes to CD14^neg cells | contributes to induction of IL-12p70 | – | –
2 | rCD40L: recombinant CD40 ligand (BioLegend), used at 5 µg/mL | – | – | near-total differentiation of cells to the CD14^neg DC phenotype | not associated with a significant change in the proliferative capacity

From article PMC11538426 (Scientific Reports, 2024)
